Series [1] concerns S. aureus 510 (MRSA). In words: Minimum inhibitory concentration by broth microdilution (Example 2). Format: cell-based, Staphylococcus aureus. The note with it: unit assumed; for MIC + 1 mM D-Lactic acid: antibiotic + 1 mM D-Lactic acid; for MIC + 10 mM D-Lactic acid: antibiotic + 10 mM D-Lactic acid; for MIC: antibiotic alone. As to the method: (§1) Bacterial strains were maintained as suspensions in 20% (v/v) glycerol/Brain-Heart Infusion at −80° C.
(§2) A standard inoculum was prepared from broth culture.
(§3) The broth culture was diluted in broth to a turbidity equal to a 0.5 McFarland Standard using a spectrophotometer at a wavelength of 620 nm. The 0.5 McFarland Standard was further diluted 1:100 in broth to create the standard inoculum. 50 μl of this standard inoculum was dispensed into every well in the microtitre tray, except the negative controls, where 50 μl of broth was dispensed instead.
(§4) Next, a working concentration at two times the highest target concentration for every antimicrobial was created in broth from stock solutions. 100 μl of this working concentration was pipetted into the first well, and 50 μl of broth media into all other wells. 50 μl of the first well was pipetted out and serially diluted across all wells in the row until the final concentration in the range achieved. 50 μl from the final well was removed and discarded. This produced a concentration range where each well was double the target concentration. All agents were performed in duplicate.
(§5) 96 well trays were incubated at 37° C. for 18±2 hours.
Background: Broth dilution looks for growth in wells or tubes with falling amounts of substance.

Series [2] deals with S. aureus 29213 (MSSA). Described as above. As to conditions: for MIC + 1 mM D-Lactic acid: antibiotic + 1 mM D-Lactic acid; for MIC + 10 mM D-Lactic acid: antibiotic + 10 mM D-Lactic acid. Format: cell-based, Staphylococcus aureus. As for the experimental part: as §1, §2, §3, §4, §5
The subject of series [3] is S. pneumoniae D39. Described as above. The series is classed as cell-based, Streptococcus pneumoniae. The note with it: for MIC + 1 mM D-Lactic acid: antibiotic + 1 mM D-Lactic acid; for MIC + 10 mM D-Lactic acid: antibiotic + 10 mM D-Lactic acid; for MIC: antibiotic alone. As to the method: (§6) Bacterial strains were maintained as suspensions in 20% (v/v) glycerol/Brain-Heart Infusion at −80° C. For use, a loop-full of ice was scraped from the stock and streaked for single colonies on rich media containing 1.8% agar (for Pseudomonas aeruginosa or Klebsiella pneumoniae, Luria-Bertani medium; for Staphylococcus aureus or Streptococcus pneumoniae, Trypticase Soy agar) and incubated overnight at 37° C.
(§7) A standard inoculum was prepared from broth culture. 1 to 3 colonies from an overnight agar culture plate were transferred to 5 ml of broth media and incubated at 37° C. with shaking (200 rpm) until turbidity was greater than that of a 0.5 McFarland Standard (overnight). The following broth media were used: Cation-adjusted Mueller-Hinton broth (caMHB—all strains); Roswell Park Memorial Institute medium (RPMI 1640, phenol red-free—S. aureus); Trypticase Soya Broth (TSB—S. aureus, S. pneumoniae); Todd Hewitt Broth (THB—S. pneumoniae), M63 minimal medium, supplemented with 0.2% glucose (M63—K. pneumoniae).
as §3, §4, §5

The subject of series [4] is S. pneumoniae D39. In words: Resazurin reduction for the evaluation of metabolic activity (Example 2). As to conditions: plus 10 mM D-Lactic acid. The series is classed as cell-based, Streptococcus pneumoniae. As to the method:
as §1
(§8) Aerobic respiration was measured in the presence or absence of D-Lactic acid and the presence or absence of companion antibiotics either following incubation and visual recording of the MIC, or in a separate study. For evaluation after completion of MIC determination, the entire volume of the MIC well (100 μl) was mixed by pipetting up and down, then transferred to the equivalent well of a fluorescence-absorbance suitable 96-well plate. Alternatively, cultures were pipetted together as above and incubated overnight at 37° C. in the absence of any antimicrobial compounds. Culture supernatants were removed, adherent cells washed and then treated by the addition of 100 μL of fresh broth, 50 μL of broth containing 4×the desired concentration of antibiotic and 50 μL containing 4×the desired concentration of D-Lactic acid or vehicle only controls, followed by incubation at 37° C. for a further 18±2 hours. After incubation regimes were completed for both procedures, resazurin reduction was evaluated by adding 10 μl of a 0.02% resazurin solution to every well, and incubating the plates with gentle shaking (40 rpm) for a further 90 minutes at 37° C. 96-well plates and resazurin were protected from light as much as possible.
(§9) Following incubation, the 96-well trays were read on a fluorescence-absorbance spectrophotometer, using an excitation frequency of 565 nm and emission frequency of 590 nm. The value for each well was blanked by subtracting the value of the negative control. Every value was then converted to a ratio with respect to the mean value of the positive controls.

The test system of series [5] is P. aeruginosa WACC91. In words: Minimum inhibitory concentration by broth microdilution (Example 2). Format: cell-based, Pseudomonas aeruginosa. As to the method:
as §6, §7, §3, §4, §5

Series [6] concerns S. aureus 29213 (MSSA). The series is described as follows: Resazurin reduction for the evaluation of metabolic activity (Example 2). The note with it: plus 10 mM D-Lactic acid. The series is classed as cell-based, Staphylococcus aureus. As for the experimental part:
as §1, §8, §9
(The colour change of resazurin is a common sign of viable cells or microbes.)

Series [7] relates to S. aureus 510 (MRSA). The series is described as above. The series is classed as cell-based, Staphylococcus aureus. As for the experimental part: as §1, §8, §9
For series [8] the following is noted: cited from earlier work.

The values that follow come from patent publication US20260271925A1, “DYSREGULATION OF PLANKTONIC BACTERIAL METABOLISM” (Lixa Limited, priority 2023, published 2026).

Molecules are shown by their SMILES. Converted amounts (≈) assume the structure as drawn.

Consider `CN(C)[C@@H]1C(O)=C(C(N)=O)C(=O)[C@@]2(O)C(O)=C3C(=O)c4c(O)cccc4[C@@](C)(O)[C@H]3C[C@@H]12` [tetracycline], for which, in series [1], the MIC + 1 mM D-Lactic acid is under 0.5 µg/mL, the MIC + 10 mM D-Lactic acid was under 0.5 µg/mL and the MIC was found to be 1 µg/mL (≈ 2.25 µM).
On to `CC1(C)S[C@@H]2[C@H](NC(=O)[C@H](N)c3ccc(O)cc3)C(=O)N2[C@H]1C(=O)O` [amoxicillin], for which, in series [2], the “MIC + 1 mM D-Lactic acid” value is under 1.0 and the “MIC + 10 mM D-Lactic acid” value came out at 2.0. Moreover, in series [3], the “MIC + 1 mM D-Lactic acid” value is on record as 0.25, the “MIC + 10 mM D-Lactic acid” value was determined as 0.25 and the MIC was determined as 0.5. In series [4], the “Relative metabolic activity, antibiotic plus D-Lactic acid versus antibiotic only” value (shortened to “Relative metabolic activity”) is on record as “enhances metabolic activity suppression”.
`C[C@H]1[C@H](NC(=O)/C(=N\OC(C)(C)C(=O)O)c2csc(N)n2)C(=O)N1S(=O)(=O)O` [aztreonam]: in series [5] (antibiotic + 1 mM D-Lactic acid), the “MIC + 1 mM D-Lactic acid” value is recorded as 4.0. For the same molecule, the “MIC + 10 mM D-Lactic acid” value in series [5] (antibiotic + 10 mM D-Lactic acid) stood at 4.0. The same molecule displayed an MIC in series [5] (antibiotic alone) of 8.0.
With `COc1cccc(OC)c1C(=O)N[C@@H]1C(=O)N2[C@@H]1SC(C)(C)[C@@H]2C(=O)O` [methicillin], the “MIC + 1 mM D-Lactic acid” value in series [2] came to 0.5; in series [1], 2 µg/mL. For the same molecule, the “MIC + 10 mM D-Lactic acid” value in series [2] was found to be 0.5; in series [1], 2 µg/mL. In series [1], this molecule returned an MIC of over 16 µg/mL. For the same molecule, the “Relative metabolic activity” value in series [6] and in series [7] (plus 10 mM D-Lactic acid) was “enhances metabolic activity suppression” each time.
As for `CC1(C)S[C@@H]2[C@H](NC(=O)[C@H](N)c3ccccc3)C(=O)N2[C@H]1C(=O)O` [ampicillin], in series [3], the “MIC + 1 mM D-Lactic acid” value is 4.0, the “MIC + 10 mM D-Lactic acid” value is given as 4.0 and the MIC is over 16.0. Further, the “Relative metabolic activity” value in series [4] is “enhances metabolic activity suppression”.
Regarding `CCC(O)C(=O)O` (centres unmarked) [2-hydroxybutanoic acid], the “Water solubility*” value in series [8] is 1930 mM.
On to `CN[C@H](CC(C)C)C(=O)N[C@H]1C(=O)N[C@@H](CC(N)=O)C(=O)N[C@H]2C(=O)N[C@H]3C(=O)N[C@H](C(=O)N[C@H](C(=O)O)c4cc(O)cc(O)c4-c4cc3ccc4O)[C@H](O)c3ccc(c(Cl)c3)Oc3cc2cc(c3O[C@@H]2O[C@H](CO)[C@@H](O)[C@H](O)[C@H]2O[C@H]2C[C@](C)(N)[C@H](O)[C@H](C)O2)Oc2ccc(cc2Cl)[C@H]1O` [vancomycin], for which the “MIC + 1 mM D-Lactic acid” value in series [2] was determined as 4.0; in series [1] it was 2 µg/mL. Also, the “MIC + 10 mM D-Lactic acid” value was determined as 2.0 in series [2] and 2 µg/mL in series [1]. In addition, in series [1], the MIC amounted to 8 µg/mL (≈ 5.52 µM). For the same molecule, the “Relative metabolic activity” value in series [6], in series [7] (plus 1.0 mM D-Lactic acid) and in series [4] was “enhances metabolic activity suppression” throughout.
